Experimental data from PubChem BioAssay (NCI).
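Exposure lasted 48 hours, with cells grown in 96-well plates and compounds tested at five concentrations. Here, GI50 denotes the concentration required for 50% inhibition of growth. The concentration for full growth arrest is given as TGI.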

What was measured:
Test in all cases: NCI anticancer screen, dose series, 48 h
ACHN renal = system: ACHN renal
HL-60(TB) leukemia = system: HL-60(TB) leukemia
HT29 colon = system: HT29 colon
SW-620 colon = system: SW-620 colon
A498 renal = system: A498 renal
SK-MEL-2 melanoma = system: SK-MEL-2 melanoma
HOP-62 NSCLC = system: HOP-62 NSCLC
DU-145 prostate = system: DU-145 prostate
UACC-257 melanoma = system: UACC-257 melanoma
HOP-92 NSCLC = system: HOP-92 NSCLC

Compound | TGI (ACHN renal) [nM] | TGI (HL-60(TB) leukemia) [nM] | TGI (HT29 colon) [nM] | TGI (SW-620 colon) [nM] | TGI (A498 renal) [nM] | TGI (SK-MEL-2 melanoma) [nM] | TGI (HOP-62 NSCLC) [nM] | TGI (DU-145 prostate) [nM] | TGI (UACC-257 melanoma) [nM] | TGI (HOP-92 NSCLC) [nM] | GI50 (ACHN renal) [nM] | GI50 (HL-60(TB) leukemia) [nM] | GI50 (HT29 colon) [nM] | GI50 (SW-620 colon) [nM] | GI50 (A498 renal) [nM] | GI50 (SK-MEL-2 melanoma) [nM] | GI50 (HOP-62 NSCLC) [nM] | GI50 (DU-145 prostate) [nM] | GI50 (UACC-257 melanoma) [nM] | GI50 (HOP-92 NSCLC) [nM]
O=[N+]([O-])c1ccc(CS(=O)Cc2ccccc2)cc1 (configuration not stated) | > 100000 | > 100000 | > 100000 | > 100000 | > 100000 | > 100000 | > 100000 | > 100000 | > 100000 | > 100000 |  |  |  |  |  |  |  |  |  | 
CC[CH2][Pb]([CH2]CC)([CH2]CC)[NH]S(=O)(=O)c1ccc(C)cc1 | 200 | 272 | 112 | 345 | 58 | 43.6 | 422 | 444 | 245 | 161 | 66.8 | 64.3 | 54.6 | 36.4 | 21.5 | 17.6 | 90.9 | 85.3 | 77.3 | 36
CCCCC[C@H]1C/C=C2/C(=O)C(Cl)=C[C@@H]2C/C=C\CCCC(=O)O[C@@H](CCCCC)C/C=C2/C(=O)C(Cl)=C[C@@H]2C/C=C\CCCC(=O)O1 | 2150 | 1270 | 1440 | 1770 | 1410 | 918 | 1010 | 1740 | 932 | 687 | 623 | 429 | 460 | 512 | 465 | 362 | 416 | 494 | 366 | 314
CC(C)(Br)C(=O)/C=C/c1ccccc1 | 6740 | 29000 | 18300 | 6790 | 36900 | 3960 | 15600 | 22900 | 28800 | 18000 |  |  |  |  |  |  |  |  |  | 
Cc1ncc([N+](=O)[O-])n1CCNC(=O)CCCn1cnc([N+](=O)[O-])n1 | > 100000 | > 100000 | > 100000 | > 100000 | > 100000 | > 100000 | > 100000 | > 100000 | > 100000 | > 100000 |  |  |  |  |  |  |  |  |  | 
CC(=O)OC1C2(CC3N4C(=O)C5(CO)SSC4(CC31O)C(=O)N5C)OC(C)C(C)(C)C2=O (configuration not stated) | 22.5 |  |  | 13.6 | 71.7 | 1790 | 1080 | 267 | 651 | 214 | < 10 | 37.9 | < 10 | < 10 | 35.2 | 339 | 575 |  | 224 | 76.3
O=c1oc2ccc(Cl)cc2c(=O)n1-c1ccc(I)cc1F | 7510 | 1360 | 22600 | 7580 | 182 | 945 | 3750 | > 49500 | 1610 | 202 | 315 | 286 | 3410 | 384 | 55 | 116 | 855 | 436 | 137 | 57.1
COc1cc2cc(Oc3ccc(NC(=O)c4ccc(Cl)c(C(F)(F)F)c4)cc3)c(C)nc2cc1OC | > 100000 | 82000 | > 100000 | > 100000 | 86300 | 51100 | > 100000 | > 100000 | 97500 | 71300 | 10800 | 20800 | 10300 | 33700 | 2420 | 18300 | 42600 | 26200 | 18200 | 13600
Nc1nc(Nc2cccc(F)c2)nc2ccccc12 | 76800 | 68400 | 39300 | 36600 | 44800 | 48800 | 38500 | > 100000 | 34100 | 38500 | 20400 | 25500 | 21400 | 17100 | 1400 | 25300 | 17100 | 37300 | 17400 | 13800
